Reference: US7405205B2, “Antitumor antisense sequences directed against R1 and R2 components of ribonucleotide reductase” (Lorus Therapeutics Inc., priority 1996, dated 2008)
Strand notation (5' to 3'): a small letter for the sugar, then the base; units joined by * are phosphorothioate-linked, units joined directly phosphodiester-linked; [ ] holds rarer units or linkages, { } end groups; capitals alone tell only the bases. d = 2'-deoxy (DNA)

Experiments:
Type in all cases: cell-based, human
[1] = tested on: T24 bladder cell carcinoma; assay: Relative colony forming efficiency after antisense treatment (Table 13); details: 0.2 μM antisense oligodeoxyribonucleotide phosphorothioate; T24 cells; averages of 2-8 determinations
[2] = tested on: A549 lung cell carcinoma; assay: as above; details: 0.2 μM antisense oligodeoxyribonucleotide phosphorothioate; A549 cells; averages of 2-8 determinations
[3] = tested on: PC-3 prostrate cell adenocarcinoma; assay: as above; details: 0.2 μM antisense oligodeoxyribonucleotide phosphorothioate; PC-3 cells; averages of 2-8 determinations
[4] = tested on: MDA-MB-231 breast cell adenocarcinoma; assay: Relative colony forming efficiency after antisense treatment (Table 13, FIG. 11, FIG. 12); details: 0.2 μM antisense oligodeoxyribonucleotide phosphorothioate; MDA-MB-231 cells; averages of 2-8 determinations
Method: Colony forming efficiency was determined as previously reported [Huang and Wright, 1994]. The cells were cultured for 24 hours at 37° C. in growth medium with 10% fetal bovine serum. The cells were washed in 5 ml phosphate buffered saline, pH 7.2, once prior to lipofectin+/−oligonucleotide treatment.
The oligonucleotides being tested were added to cell cultures in the presence of 2.5 μg of DOTMA/DOPE (Lipofectin; Life Technologies, Inc.) for four hours. The oligonucleotide was tested at 0.2 μM unless otherwise indicated. Controls were the cultures treated with lipofectin but without the oligonucleotide. After 4 hours the medium containing the oligonucleotide was removed and washed with 5 ml of growth medium. The cells were then cultured in growth medium containing 10% fetal bovine serum for seven to ten days. Surviving cells were visualized by methylene blue staining, and colonies were scored. In some experiments cell aliquotes were removed from the culture and viability was determined using the trypan blue exclusion test [Phillips, 1973]. Results were analyzed as percent of surviving cells compared to control cells.
To test the antisense effects of many of these sequences as phosphorthioate deoxyribonucleotides, they were examined in relative colony forming experiments performed with a series of human tumor cell lines. Many of these antisense constructs, as predicted, are potent inhibitors of human tumor cell proliferation. For results obtained with cancer cells derived from the bladder, breast, lung, colon, pancreas, prostate, liver and cervix, see Table 13. In addition, in vivo studies with AS-II-626-20 were undertaken in C3H/HeN mice as reported in Table 14 and show a significant reduction in metastasis in the antisense treated mice.
Colony forming ability of MDA-MB-231 human breast cancer cells treated with 28 different antisense oligonucleotides was estimated as previously described (Choy et al., 1988). Aliquots of cell suspension were seeded into 60 mm Petri dishes and incubated at 37° C. overnight in α-MEM medium supplemented with 10% fetal bovine serum. Cells were washed in 5 ml of phosphate buffered saline, pH 7.2, prior to 0.2 μM antisense/lipofectin treatments for 4 hours. The media containing the antisense oligonucleotides were removed and cells were washed once and cultured in growth medium for 7 to 10 days. Colonies were stained with methylene blue and scored as described (Choy et al., 1988; Huang and Wright 1994). Percent inhibition was calculated by comparison with the number of colonies present in cultures grown in the absence of antisense oligonucleotides. All experiments were performed in quadruplicate. FIG. 11 is a graph of the percentage inhibition of colony formation by treatment with the various antisense oligonucleotides.
Colony forming ability of various human tumor cell lines was estimated by determining relative colony forming efficiencies (Choy et al., 1988). Cells from various cell lines were washed in 5 ml of phosphate buffered saline, pH 7.2. The cells were treated with 0.2 μM AS-I-618-20 antisense oligonucleotide/lipofectin for 4 hours. The medium containing the antisense oligonucleotide was then removed and the cells were gently washed with 5 ml of growth medium. The cells were cultured in growth medium containing 10% fetal bovine serum for seven to ten days. […] The following human tumor cell lines were evaluated: HepG2 (liver), SK-OV-3 (ovary), U87 (brain), A2058 (melanoma), H460 (lung), MDA-MB-231 (breast) and AsPC-1 (pancreas).

[5] = tested on: MIA PaCa-2 pancreatic cell carcinoma; assay: Relative colony forming efficiency after antisense treatment (Table 13); details: 0.2 μM antisense oligodeoxyribonucleotide phosphorothioate; MIA PaCa-2 cells; averages of 2-8 determinations
[6] = tested on: HepG2 hepatocellular carcinoma; assay: Relative colony forming efficiency after antisense treatment (Table 13, FIG. 12); details: 0.2 μM antisense oligodeoxyribonucleotide phosphorothioate; HepG2 cells; averages of 2-8 determinations
[7] = tested on: HCT116 colon cell carcinoma; assay: Relative colony forming efficiency after antisense treatment (Table 13); details: 0.2 μM antisense oligodeoxyribonucleotide phosphorothioate; HCT116 cells; averages of 2-8 determinations

| Sequence | Reduced relative colony forming efficiency, expressed as % inhibition, T24 [1] [%] | Reduced relative colony forming efficiency, expressed as % inhibition, A549 [2] [%] | Reduced relative colony forming efficiency, expressed as % inhibition, PC-3 [3] [%] | Reduced relative colony forming efficiency, expressed as % inhibition, MDA-MB-231 [4] [%] | Reduced relative colony forming efficiency, expressed as % inhibition, MIA PaCa-2 [5] [%] | Reduced relative colony forming efficiency, expressed as % inhibition, HepG2 [6] [%] | Reduced relative colony forming efficiency, expressed as % inhibition, HCT116 [7] [%] |
| --- | --- | --- | --- | --- | --- | --- | --- |
| TGGCTGTGCTGGTTAAAGGA (DNA, all phosphorothioate, methylation of C not given here) [AS-II-1659-20] | 74.09 | 54.7 | 81.56 | 42.86 | 42.54 |  |  |
| TTAGTGGTCAGGAGAATGTA (antisense; DNA, all phosphorothioate, methylation of C not given here) [AS-II-1819-20] | 53.74 |  | 85.46 | 90.68 | 20.02 | 83.89 |  |
| TGGCACCAACTGACTAATAT (antisense; DNA, all phosphorothioate, methylation of C not given here) [AS-II-1976-20] |  |  | 88.16 | 89.6 |  |  |  |
| ACCCTTCCCATTGGCTGCGC (dA*dC*dC*dC*dT*dT*dC*dC*dC*dA*dT*dT*dG*dG*dC*dT*dG*dC*dG*dC; antisense) [AS-II-6-20] | 73.85 |  | 89.21 | 88.4 | 95.15 | 97.89 |  |
| ATTAAAATCTGCGTTGAAGC (DNA, all phosphorothioate, methylation of C not given here) [AS-II-1700-20] | 70.94 | 77.28 | 90.63 | 30.75 | 34.52 |  |  |
| TGCCTCCGACCCTTCCCATT (antisense dT*dG*dC*dC*dT*dC*dC*dG*dA*dC*dC*dC*dT*dT*dC*dC*dC*dA*dT*dT) [AS-II-14-20] | 77.59 |  | 92.76 | 91.24 | 47.93 | 88.4 |  |
| AACCGGAAAAGAAAATGCCT (antisense; DNA, all phosphorothioate, methylation of C not given here) [AS-II-890-20] | 82.07 | 81.6 | 87.93 | 88.2 | 66.02 |  |  |
| GACATCACTCCCATCCTCTG (DNA, all phosphorothioate, methylation of C not given here) [AS-II-1302-20] | 70.56 | 93.17 | 79.01 | 92.2 | 23.86 |  | 71.98 |
| CACACAACCTACTTACACCA (antisense; DNA, all phosphorothioate, methylation of C not given here) [AS-II-2372-20] | 61.13 | 96.41 | 86.06 | 90.09 | 94.36 |  | 64.7 |
| TTTTAACTGGCTGTGCTGGT (DNA, all phosphorothioate, methylation of C not given here) [AS-II-1666-20] | 71.71 | 54.82 | 86.06 | 26.71 | 49.72 |  |  |
| TTCATGGTGTGGCTAGTTGG (DNA, all phosphorothioate, methylation of C not given here) [AS-II-1438-20] | 43.7 | 51.27 | 83.96 | 69.06 | 42.13 |  |  |
| AAACGGCTTCTCACACATAT (antisense; DNA, all phosphorothioate, methylation of C not given here) [AS-II-2151-20] | 79.83 | 79.19 | 84.86 | 95.14 | 62.15 |  |  |
| TCGCCTACTCTCTTCTCAAA (DNA, all phosphorothioate, methylation of C not given here) [AS-II-1278-20] | 65.42 |  | 85.31 | 90.68 | 57.05 |  |  |
| GGCCCAGATCACCCCTAAAT (antisense; DNA, all phosphorothioate, methylation of C not given here) [AS-II-2128-20] | 83.74 | 87.31 | 88.89 | 91.3 | 39.23 |  |  |
| CAGAATATCGACGCAAAAGA (antisense; DNA, all phosphorothioate, methylation of C not given here) [AS-II-909-20] | 78.57 | 78.68 | 84.86 | 45.96 | 46.13 |  |  |
| TATCGCCGCCGTGAGTACAA (DNA, all phosphorothioate, methylation of C not given here) [AS-II-1768-20] | 74.56 | 86.8 | 86.36 | 91.56 | 60.36 |  |  |
